According to patent publication US7781423B2, “Compounds to promote regeneration of bone marrow” (priority 2007, dated 2010):

Tests used:
[1] = test system: MXT mammary tumor; type: in vivo; conditions: MXT tumor-bearing, CP-treated mice, by day 22
Procedure: This experiment was designed to determine whether in a tumor model CC compounds could prevent cyclophosphamide-induced loss of body weight resulting from the depression of blood marrow function. Specified pathogen free (SPF) hygienic category colonies of first generation hybrid BDF1 (C57B1 female×DBA/2 male) adult female mice, weighing 23-24 g, were used. The animals were kept in macrolon cages at 22-24° C. (45-55% humidity), with a lighting regimen of 12/12 h light/dark. […] The animals used in these studies were cared for according to the “Guiding Principles for the Care and Use of Animals” based upon the Helsinki declaration.
MXT mammary tumor pieces (containing about 10^6 tumor cells) were implanted subcutaneously to develop the tumors. After six days when the tumor-bearing mice were first treated, the sizes of the tumors were in the 0.26-0.30 cm^3 range. All compounds used were dissolved in 0.9% sodium chloride and applied subcutaneously (CC compounds) or intraperitoneally (CP) in 50 μl volume. Tumor volume was determined by using calipers in three dimensions; this technique is well known to one having ordinary skill in the art. Tumor volume was calculated according to the generally accepted formula: V=a^2×b×π/6, where “a” and “b” mean the shortest and longest diameter, respectively, of the measured tumor.
In the first group, animals received no treatment. In the second group, mice were administered 120-mg/kg of CP on day 6 followed by seven consecutive daily treatments with the same dose. In the third group, each treatment with CP was associated with administration of 4.5-mg/kg of CCompound1. In the fourth group, each treatment with CP was associated with administration of 4.5-mg/kg of CCompound3. In the fifth group, each treatment with CP was associated with administration of 2.0-mg/kg of CCompound26. Each group included 7 mice. All data represent the average of 7 determinations (one determination with each mouse in the group).

[2] = Solubility in water
[3] = test system: transplanted bone marrow cells; assay: Bone marrow regeneration from transplanted bone marrow cells after lethal irradiation (BM cells, CFU-GM); type: in vivo, C57B1 mice; conditions: for CFU-GM per femur / CFU-GM/10^5 nucleated BM cells: CCompound1 4.5 mg per kg i.p. daily, day -3 to day +3
Procedure: C57B1 female (10-14 weeks old) mice received sublethal (250 cGy) whole body irradiation from a ^137Cesium source (day 0). Starting three days before irradiation, animals received daily 4.5 mg per kg of CCompound1 via intraperitoneal injection; this treatment also was provided on day 0 and once daily for three days subsequent to irradiation. In another group, mice were injected only with physiological saline. The subsequent procedure has been reported in Vas, V., Fajka-Boja, R., Ion, G. A., Dudics, V., Monostori, E. and Uher, F., “Biphasic effect of recombinant Galectin-1 on the growth and death of early hematopoietic cells,” Stem Cells, 23, 279-287 (2005). Briefly, bone marrow was flushed from the femurs with Iscove's modified Dulbecco's medium (Gibco BRL, Gaithersburg, Md., USA), and after standard erythrocyte lysis, nucleated cells were counted using a hemocytometer. Samples were taken on days 0, 1, 3, and 10. To measure the formation of the granulocyte-macrophage colony-forming units (CFU-GM), a semisolid colony-forming cell assay was used. Nucleated bone marrow cells (isolated on the days as indicated above) were plated in 35-mm Petri dishes (Costar, Cambridge, Mass., USA) in Iscove's modified Dulbecco's medium supplemented with 1% methylcellulose, 30% horse serum (Gibco), 10% WEHI-3B conditioned medium as a source of growth factors, 4 mM L-glutamine, 0.25 mM a-thioglycerol (Gibco), 1% deionized bovine serum albumine (Sigma), and antibiotics (Gibco). Cells were cultured at 37° C. in 5% CO2/95% air atmosphere and colonies were counted on day 7 in the same dish. Colonies containing at least 50 cells were counted which is a generally accepted value in the literature. Each value represents the mean±st. dev. of 9 samples (3 parallel dishes from each animal).
In this experiment the goal was to determine if CCompound1 can enhance expansion of transplanted bone marrow cells infused after applying a lethal dose of whole body irradiation (which reduces the number of bone marrow cells by more than 90%). C57B1 female mice (10-14 weeks old) were subjected to 900 cGy whole body irradiation from a ^137Cesium source which was followed within 6 hours by infusion of one million donor nucleated bone marrow cells by tail vein injection. Starting 3 days before irradiation, animals received daily 4.5 mg per kg of CCompound1 via intraperitoneal injection; this treatment also was provided on day 0 and once daily for the subsequent 3 days after irradiation. In another group, mice were injected only with physiological saline.
Bone marrow cells were collected on day 0 from non-irradiated animals as well as on days 6, 14, 28 and 42 after irradiation and bone marrow transplantation. Nucleated bone marrow cells were quantified and CFU-GM assay was performed as described in Example 3 while blood profiling was performed as described in Example 1. For each group, on the indicated days bone marrow and blood samples were collected from 3 animals. Each value presented in Table 5 and Table 6 represents the mean±st. dev. of 3 samples (derived from 3 animals).

[4] = day 6 after 900 cGy irradiation and bone marrow transplantation
[5] = day 14 after 900 cGy irradiation and bone marrow transplantation
[6] = day 28 after 900 cGy irradiation and bone marrow transplantation
[7] = day 42 after 900 cGy irradiation and bone marrow transplantation

In the case of `Cc1c(OCC(O)C[N+](C)(C)C)cc2c(=O)c3ccccc3sc2c1C.[Cl-]` (stereo not drawn) [CCcompound1, [3-(3,4-Dimethyl-9-oxo-9H-thioxanthen-2-yloxy)-2-hydroxypropyl]trimethyl-ammonium chloride], the “effect on body weight” value [1] is reported as “body weight gain”, the solubility in water [2] is reported as “soluble in water” and the CFU-GM per femur [3, 4] is reported as 134.9. The “CFU-GM/10^5 nucleated BM cells” value [3, 4] was 44.8 ± 5.1, the “level of bone marrow re-population in the femur, treated versus untreated animals” value ([3]; day 6 following transplantation) was “about 5.3 fold” and the CFU-GM per femur [3, 5] was 650.4. The “CFU-GM/10^5 nucleated BM cells” value [3, 5] was 81.2 ± 5.3, the “level of bone marrow re-population in the femur, treated versus untreated animals” value ([3]; day 14 following transplantation) was roughly 2.9 fold and the CFU-GM per femur [3, 6] was 1,286.4. The “CFU-GM/10^5 nucleated BM cells” value [3, 6] was 125.5 ± 9.1, the CFU-GM per femur [3, 7] was 992.4 and the “CFU-GM/10^5 nucleated BM cells” value [3, 7] was 71.5 ± 5.3.
